Assay results as given in patent US20040014779A1, “Methods and compositions related to IRM compounds and toll-like recptor pathways” (3M Innovative Properties Company, priority 2001, published 2004).
Values joined by “and” are separate entries in the source; they are usually repeats but may differ in a detail not shown here. Equal entries are not always repeated. Where two headings read alike, the source gives them in different places.

How the values were obtained:
human TLR7 = target: T1, human TLR7 (Homo sapiens, UniProt Q9NYK1); assay: NFkB-luc reporter in HEK293 cells transfected with human TLR7; assay type: cell-based
T1 construct: expressed in transfected cells; host or cells: HEK293 (pIRES, G-418 selected)
T1 sequence (Q9NYK1 27-1049): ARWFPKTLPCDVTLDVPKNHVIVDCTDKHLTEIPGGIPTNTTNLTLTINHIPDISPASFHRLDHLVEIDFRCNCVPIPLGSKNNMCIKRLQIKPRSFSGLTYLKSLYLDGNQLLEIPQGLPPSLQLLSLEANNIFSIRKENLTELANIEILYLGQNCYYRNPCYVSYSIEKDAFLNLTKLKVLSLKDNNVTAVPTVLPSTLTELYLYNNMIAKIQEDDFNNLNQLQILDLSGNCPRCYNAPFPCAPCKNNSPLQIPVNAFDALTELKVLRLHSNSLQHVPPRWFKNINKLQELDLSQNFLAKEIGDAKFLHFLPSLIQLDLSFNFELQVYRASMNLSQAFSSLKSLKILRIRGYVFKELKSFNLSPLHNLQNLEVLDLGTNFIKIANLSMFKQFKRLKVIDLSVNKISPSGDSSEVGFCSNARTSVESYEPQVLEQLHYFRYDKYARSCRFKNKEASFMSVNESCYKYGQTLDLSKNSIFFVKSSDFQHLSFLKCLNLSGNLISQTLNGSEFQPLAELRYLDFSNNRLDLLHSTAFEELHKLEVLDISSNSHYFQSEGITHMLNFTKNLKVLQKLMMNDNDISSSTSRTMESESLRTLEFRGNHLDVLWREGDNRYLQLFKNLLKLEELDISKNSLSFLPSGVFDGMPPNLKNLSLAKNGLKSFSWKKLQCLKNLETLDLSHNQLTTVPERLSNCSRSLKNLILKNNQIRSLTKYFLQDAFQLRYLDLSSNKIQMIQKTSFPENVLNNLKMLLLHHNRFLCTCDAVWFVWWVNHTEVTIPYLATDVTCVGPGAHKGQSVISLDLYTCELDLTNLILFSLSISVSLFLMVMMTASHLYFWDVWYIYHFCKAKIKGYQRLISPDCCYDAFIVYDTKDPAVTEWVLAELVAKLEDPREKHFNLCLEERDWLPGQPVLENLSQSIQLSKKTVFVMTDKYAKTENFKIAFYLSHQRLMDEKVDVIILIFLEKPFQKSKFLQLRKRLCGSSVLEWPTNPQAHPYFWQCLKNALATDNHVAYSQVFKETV
Experimental: (§1) HEK 293 cells were cultured in Minimum Essential Medium (MEM) with 2 mM L-glutamine and Earle's Balanced Salt Solution (Invitrogen Corp., Rockville, Md.) adjusted to contain 1.5 g/L sodium bicarbonate, 0.1 mM non-essential amino acids, and 1.0 mM sodium pyruvate, 90%; heat-inactivated fetal calf serum, 10%. The cells were incubated at 37° C., 8% CO2.
(§2) The cells were co-transfected with human TLR7 or Empty Vector control pIRES (BD Biosciences Clontech, Palo Alto, Calif.) along with NFkB-luc reporter (Stratagene, La Jolla, Calif.) in a 10:1 ratio with Fugene 6 transfection reagent (Roche Diagnostics Corp., Indianapolis, Ind.) following the manufacturer's instructions.
(§3) The cells were stimulated with 1 μL of IRM compounds at 1 mM in DMSO (final concentration of 10 μM) or 1 μL DMSO as a control. The plates were then incubated an additional 16 hours at 37° C., 5% CO2. The luciferase signal was read using the LucLite kit (Packard Instrument Co., Meriden, Conn.). The luminescence was measured on the Topcount NXT (Packard Instrument Co., Meriden, Conn.).

NF-κB = assay: NFkB-luc reporter in HEK293 cells with empty vector control; assay type: cell-based, human; settings: luciferase signal; for Fold Increase Over DMSO Control, HEK 293 Vector: 10 μM, 16 hours; for fold induction at 10 µM: Homo sapiens, HEK293, 16 h, read-out: Fold Increase Over DMSO Control, HEK 293 Vector
Experimental: as §1, §2, §3

TLR6 = target: T2, TLR6 (Homo sapiens, UniProt Q9Y2C9); assay: Anti-TLR6 antibody inhibition of TNF-α production by human PBMC; assay type: cell-based; settings: preincubation with anti-TLR6 antibodies; compared with LPS
T2 construct: Peripheral blood mononuclear cells (PBMCS) were isolated; endogenous in cells; host or cells: human PBMC from healthy volunteers
T2 sequence (Q9Y2C9 32-796): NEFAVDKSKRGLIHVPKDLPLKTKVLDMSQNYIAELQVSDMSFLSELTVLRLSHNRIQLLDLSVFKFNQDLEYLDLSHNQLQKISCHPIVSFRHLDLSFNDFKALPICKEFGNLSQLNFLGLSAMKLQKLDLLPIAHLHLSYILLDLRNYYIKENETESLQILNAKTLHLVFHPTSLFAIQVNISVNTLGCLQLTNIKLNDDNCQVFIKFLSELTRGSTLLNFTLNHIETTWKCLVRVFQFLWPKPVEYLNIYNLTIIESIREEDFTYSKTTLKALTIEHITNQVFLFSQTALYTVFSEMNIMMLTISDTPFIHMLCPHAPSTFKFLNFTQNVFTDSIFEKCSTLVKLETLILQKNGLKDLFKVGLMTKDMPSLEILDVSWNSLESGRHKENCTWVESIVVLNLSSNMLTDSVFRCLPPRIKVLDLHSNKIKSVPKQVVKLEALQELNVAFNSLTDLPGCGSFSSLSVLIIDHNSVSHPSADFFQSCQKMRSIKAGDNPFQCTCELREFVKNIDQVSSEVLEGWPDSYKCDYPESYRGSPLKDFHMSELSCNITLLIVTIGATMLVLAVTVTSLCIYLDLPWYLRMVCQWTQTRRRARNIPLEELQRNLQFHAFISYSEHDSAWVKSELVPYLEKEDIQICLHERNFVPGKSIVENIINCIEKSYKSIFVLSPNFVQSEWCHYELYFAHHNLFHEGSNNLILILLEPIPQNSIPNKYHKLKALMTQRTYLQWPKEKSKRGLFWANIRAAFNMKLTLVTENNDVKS
T2 sequence (O60603 21-784 partner): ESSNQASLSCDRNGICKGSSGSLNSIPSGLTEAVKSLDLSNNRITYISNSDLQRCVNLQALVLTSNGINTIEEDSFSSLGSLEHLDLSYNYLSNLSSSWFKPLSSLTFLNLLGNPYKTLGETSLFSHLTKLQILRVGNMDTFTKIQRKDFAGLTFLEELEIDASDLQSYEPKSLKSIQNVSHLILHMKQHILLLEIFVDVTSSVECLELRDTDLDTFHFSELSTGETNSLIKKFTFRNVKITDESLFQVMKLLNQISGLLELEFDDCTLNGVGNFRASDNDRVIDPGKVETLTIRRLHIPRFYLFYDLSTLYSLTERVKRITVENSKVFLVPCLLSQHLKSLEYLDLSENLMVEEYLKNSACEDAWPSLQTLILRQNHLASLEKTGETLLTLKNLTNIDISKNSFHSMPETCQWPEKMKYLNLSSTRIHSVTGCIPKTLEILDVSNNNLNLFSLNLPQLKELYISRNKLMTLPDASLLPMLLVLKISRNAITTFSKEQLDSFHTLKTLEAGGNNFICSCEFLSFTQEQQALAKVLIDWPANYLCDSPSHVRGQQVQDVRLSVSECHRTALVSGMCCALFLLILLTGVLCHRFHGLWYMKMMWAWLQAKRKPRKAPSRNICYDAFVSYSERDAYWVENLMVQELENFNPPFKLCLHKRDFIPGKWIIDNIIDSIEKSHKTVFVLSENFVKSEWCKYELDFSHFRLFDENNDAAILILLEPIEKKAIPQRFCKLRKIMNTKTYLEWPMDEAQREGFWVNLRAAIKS
Experimental: Peripheral blood mononuclear cells (PBMCS) were isolated with the Histopaque HybriMax—1077 density gradient (Sigma Chemical Co., St. Louis, Mo.) from healthy human volunteers after obtaining informed consent.
PBMC were resuspended in cRPMI at a concentration of 10^6 cells/ml. 100 μl of cells (10^5 cells) were then added to individual wells of a 96 well U-bottom plate (BD Biosciences Discovery Labware, Bedford, Mass.). Solutions containing cRPMI with 40 μg/ml of the affinity purified anti-TLR6 polyclonal antibody were prepared. 50 μl of the antibody solution was added to cells and incubated for 30 minutes. […] Cells were incubated for 18 hours at 37° C. in an atmosphere of 5% CO2/95% air. Supernatants were collected and frozen at −20° C. for cytokine analysis. The data are presented as % inhibition relative to control.
Data shown are representative of six independent experiments.

[1] = luciferase signal, 10 μM, 16 hours, TLR7 cells

| Compound | Fold Increase Over DMSO Control, HEK293 TLR7 (human TLR7) [fold] | Fold Increase Over DMSO Control, HEK 293 Vector (NF-κB) [fold] | Fold Increase Over DMSO Control, HEK293 TLR7 (human TLR7; [1]) | fold induction at 10 µM (NF-κB) | Effect of anti-TLR6 antibodies on stimulus-induced TNF-α production (in words) (TLR6) |
| --- | --- | --- | --- | --- | --- |
| CCOCc1nc2c(N)nc3c(c2n1CC(C)(C)O)CCCC3 [IRM 9, 4-amino-2-ethoxymethyl-α,α-dimethyl-6,7,8,9-tetrahydro-1H-imidazol[4,5-c]quinoline-1-ethanol] | 4.67 | 0.81 | – | – | – |
| Nc1nc2ccccc2c2c1nc1n2CCCC1 [IRM 13, 8,9,10,11-tetrahydropyrido[1′,2′:1,2]imidazol[4,5-c]quinolin-6-amine] | – | 1.20 | 2.39 fold | – | – |
| CCCCc1nc2c(N)nc3cnccc3c2n1CC(C)C [IRM 6, 2-butyl-1-(2-methylpropyl)-1H-imidazo[4,5-c][1,7]naphthyridin-4-amine] | – | – | 1.25 fold | 0.95 | – |
| Peptidoglycan | – | – | – | – | inhibited by the antibodies to a greater extent |
| CCCCc1nc2c(N)nc3ncccc3c2n1CC(C)C [IRM 5, 2-butyl-1-(2-methylpropyl)-1H-imidazo[4,5-c][1,8]naphthyridin-4-amine] | – | – | 1.13 fold | 1.21 | – |
| Cc1nc2c(N)nc3ccccc3c2n1CC(C)(C)O.Cl [IRM 1, 4-amino-α,α,2-trimethyl-1H-imidazo[4,5-c]quinoline-1-ethanol hydrochloride] | – | – | 3.75 fold | 0.86 | – |
| CCCCc1nc2c(N)nc3ccccc3c2n1CCCCNS(C)(=O)=O [IRM 12, N-[4-(4-amino-2-butyl-1H-imidazo[4,5-c]quinolin-1-yl)butyl]methanesulfonamide] | – | – | 15.33 fold | 1.33 | – |
| CCCCc1nc2c(N)nc3cccnc3c2n1CC(C)C [IRM 7, 2-butyl-1-(2-methylpropyl)-1H-imidazo[4,5-c][1,5]naphthyridin-4-amine] | – | – | 3.06 fold | 1.3 | – |
| COCCc1nc2c(N)nc3ccccc3c2n1CCCCNC(=O)c1ccc(-n2cccc2)nc1 [IRM 14, N^3-{4-[4-amino-2-(2-methoxyethyl)-1H-imidazo[4,5-c]quinolin-1-yl]butyl}-6-(1H-1-pyrrolyl)nicotinamide] | – | – | 1.37 fold | 1.31 | – |
| COCCc1nc2c(N)nc3ccccc3c2n1CCCCNC(=O)N1CCOCC1 [IRM 16, N-{4-[4-amino-2-(2-methoxyethyl)-1H-imidazo[4,5-c]quinolin-1-yl]butyl}morpholine-4-carboxamide] | – | – | 1.51 fold | 0.98 | – |
| C[C@H](c1ccccc1)n1cnc2c(N)nc3ccccc3c21 [IRM 10, 1-[R(+)-1-phenylethyl]-1H-imidazo[4,5-c]quinolin-4-amine] | – | 1.10 | 2.55 fold | – | – |
| CCCCc1nc2c(N)nc3cccnc3c2s1 [IRM 11, 2-butyl[1,3]thiazolol[4,5-c][1,5]naphthyridin-4-amine] | – | 1.35 | 1.06 fold | – | – |
| Nc1nc2ccccc2c2c1ncn2CCOCCCc1cccnc1 [IRM 4, 1-{2-[3-(3-pyridyl)propoxy]ethyl}-1H-imidazo[4,5-c]quinolin-4-amine] | – | – | 4.06 fold | 1 | – |
| CCCCc1nc2c(N)nc3ccccc3c2n1CCNS(C)(=O)=O [IRM 15, N-[2-(4-amino-2-butyl-1H-imidazo[4,5-c]quinolin-1-yl)ethyl]methanesulfonamide] | – | – | 1.88 fold | 1.04 | – |
| CCCCc1nc2c(N)nc3c(c2n1CC(C)C)NCCC3 [IRM 8, 2-butyl-6,7,8,9-tetrahydro-1-(2-methylpropyl)-1H-imidazo[4,5-c][1,5]naphthyridin-4-amine] | – | – | 4.59 fold | 0.91 | – |
| CCCCc1nc2c(N)nc(C)c(C)c2n1CCCCNS(C)(=O)=O [IRM 17, N-[4-(4-amino-2-butyl-6,7-dimethyl-1H-imidazo[4,5-c]pyridin-1-yl)butyl]methanesulfonamide] | – | – | 2.79 fold and 2.71 fold | 0.99 | – |
